Assay results as given in the supplement of paper PMC11451515.

Key:
Experiment in all cases: AUC of viability dose-response curve (% viability x log10 dose units); higher = less sensitive
Conditions in all cases: 48 h
P12-Ichikawa = tested on: P12-Ichikawa
Method in brief: (§1)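 Leukemia cells adapted to each medium were seeded at 500 or 1000 cells/well in 1536-well plates and dosed with library compounds in DMSO at 11 threefold doses from 47 μM to 0.79 nM for 48 h at 37°C. CellTiter-Glo One luminescence was normalised per plate to DMSO and cell-free wells, then fitted with a four-parameter log-logistic model over log10 doses. Area under the curve was taken from this fit by the trapezoidal rule, with curves above full viability scaled and curves failing quality control removed.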

NOMO1 = tested on: NOMO1
Method in brief: as §1

SEM cells = tested on: SEM cells
Method in brief: as §1

[1] = RPMI 5 mM glucose + 10% dialyzed FBS

SMILES	AUC of viability dose-response curve (P12-Ichikawa; HPLM + 10% dialyzed FBS)	AUC of viability dose-response curve (P12-Ichikawa; RPMI 5 mM glucose + 10% FBS)	AUC of viability dose-response curve (P12-Ichikawa; [1])	AUC of viability dose-response curve (NOMO1; HPLM + 10% dialyzed FBS)	AUC of viability dose-response curve (NOMO1; RPMI 5 mM glucose + 10% FBS)	AUC of viability dose-response curve (NOMO1; [1])	AUC of viability dose-response curve (SEM cells; HPLM + 10% dialyzed FBS)	AUC of viability dose-response curve (SEM cells; RPMI 5 mM glucose + 10% FBS)	AUC of viability dose-response curve (SEM cells; [1])
COC(=O)Nc1nc2cc(C(=O)c3ccc(F)cc3)ccc2[nH]1	365	377	388	372	426	402	343	363	374
CCc1cc2c(cc1N1CCC(N3CCOCC3)CC1)C(C)(C)c1[nH]c3cc(C#N)ccc3c1C2=O	464	443	451	–	–	–	–	–	–
CCn1c(-c2nonc2N)nc2c(C#CC(C)(C)O)ncc(OC[C@H]3CCCNC3)c21	358	282	313	360	388	390	341	397	345
COc1ccc(C(=O)c2c(C)n(CCN3CCOCC3)c3ccccc23)cc1	456	463	434	466	439	430	459	400	449
OC1=CC2=C(C=C1)C(=O)\C(=C(O2)\C3=CC(=C(O)C=C3)O)O	430	420	406	–	–	–	456	456	418
O=S(=O)([O-])CCS.[Na+]	379	383	407	367	341	351	452	443	405
N[C@H]2CN(CC12CC1)c3c(F)cc4c(c3Cl)[N@@](C=C(C4=O)C(=O)O)C5C[C@H]5F (some centres not stated)	439	417	395	420	387	413	412	431	398
COc1ccc(OC)c(-c2nnc3ccc(-c4ccc(OC)c(O[C@@H]5CCOC5)c4)nn23)c1	473	458	466	463	477	469	477	470	473
NC(=O)Nc1sc(-c2ccc(F)cc2)cc1C(N)=O	419	421	414	415	436	415	425	304	402
CCN(CCO)CCCOc1ccc2c(Nc3cc(CC(=O)Nc4cccc(F)c4)[nH]n3)ncnc2c1	256	259	287	372	329	355	302	280	282
C[C@H](CCC(=O)O)[C@H]1CCC2C3C[C@H](O)[C@@H]4C[C@H](O)CC[C@]4(C)C3CC[C@@]21C (some centres not stated)	454	450	463	449	458	459	452	452	469
O=C1CCC[C@@H]2[C@H]3CCCN4CCC[C@@H](CN12)[C@@H]34	426	396	389	–	–	–	324	390	347
CCOC(=O)C(C#N)C\1C2=CC(=CC=C2O\C(=C1C(=O)OCC)N)Br (configuration not stated)	467	452	463	445	449	447	450	462	421
O=C(NCCCCN1CCOCC1)c1cc2ccccc2o1	467	440	448	459	462	451	441	440	457
OC[C@H]1O[C@H](C[C@@H]1O)N2\C=C(F)/C(=O)NC2=O	244	298	259	250	347	214	243	352	198
CC[N+](CC)(CC)CCOc1cccc(OCC[N+](CC)(CC)CC)c1OCC[N+](CC)(CC)CC	451	455	456	400	439	445	423	463	477
C[N]1C=C(C2=CC=CC=C12)\C3=C(\C(=O)NC3=O)C4=C[N](C5CCN(CC5)CC6=NC=CC=C6)C7=C4C=CC=C7	472	475	472	458	424	445	461	446	454
OC1=CC=C(C=C1)\C2=C\OC3=C(C(=CC(=C3)O)O)C2=O	466	471	468	459	455	473	452	395	433
CCc1cc(C(N)=S)ccn1	448	463	452	459	434	460	407	434	447
CC(C)(S)[C@@H](N)C(=O)O	471	468	476	469	472	465	439	431	455
C=C1C(=O)[C@@]23C(CC[C@@H]1[C@H]2O)[C@@]12CO[C@]3(O)[C@@H](O)[C@@H]1C(C)(C)CC[C@@H]2O (some centres not stated)	409	394	389	435	444	451	–	–	–
ClC1=CC=C2N/C3=N/C(=O)CN3CC2=C1Cl	464	456	452	456	445	410	468	446	456
NC[C@@H]1O[C@H](O[C@H]2[C@@H](O)[C@H](O[C@@H]3[C@@H](O)[C@H](N)C[C@H](N)[C@H]3O[C@H]3O[C@H](CN)[C@@H](O)[C@H](O)[C@H]3N)O[C@@H]2CO)[C@H](N)[C@@H](O)[C@@H]1O.O=S(=O)(O)O.O=S(=O)(O)O.O=S(=O)(O)O	473	467	461	468	465	428	476	463	458
CCN1\C=C(\C(O)=O)C(=O)C2=C1N=C(N3CCNCC3)C(=C2)F	430	386	396	343	380	361	385	407	409

SMILES	AUC of viability dose-response curve (P12-Ichikawa; HPLM + 10% dialyzed FBS)	AUC of viability dose-response curve (P12-Ichikawa; RPMI 5 mM glucose + 10% FBS)	AUC of viability dose-response curve (P12-Ichikawa; [1])	AUC of viability dose-response curve (NOMO1; HPLM + 10% dialyzed FBS)	AUC of viability dose-response curve (NOMO1; RPMI 5 mM glucose + 10% FBS)	AUC of viability dose-response curve (NOMO1; [1])	AUC of viability dose-response curve (SEM cells; HPLM + 10% dialyzed FBS)	AUC of viability dose-response curve (SEM cells; RPMI 5 mM glucose + 10% FBS)	AUC of viability dose-response curve (SEM cells; [1])
CC[S+](=O)([O-])Nc1ccc2c(c1)/C(=C(/Nc1ccc(CN3CCCCC3)cc1)c1ccccc1)C(=O)N2	276	274	297	335	314	323	223	232	230
CN1C(=O)C(=C\C2=C1N=C(NC3=CC=CC(=C3)C(O)=O)N=C2)/C4=C(Cl)C=CC=C4Cl	468	465	463	465	467	461	439	405	426
C[C@]12Cc3cn[nH]c3C[C@@H]1CC[C@@H]1[C@@H]2CC[C@@]2(C)[C@H]1CC[C@]2(C)O	459	466	463	458	467	442	414	473	473
O=C(CS(=O)Cc1ccco1)NC/C=C\COc1cc(CN2CCCCC2)ccn1 (configuration not stated)	459	463	450	464	440	474	455	452	446
N#Cc1ccc(Oc2ccc3c(c2)COB3O)cc1	425	463	460	413	463	466	458	458	461
C=C1C(=O)OC(CCCCCCCC)C1C(=O)O (configuration not stated)	468	467	468	474	462	464	461	457	468
COc1cc(Nc2c(C#N)cnc3cc(OCCCN4CCN(C)CC4)c(OC)cc23)c(Cl)cc1Cl	372	382	382	370	397	407	–	–	–
NC(=O)[C@H]1CCS[C@@H]2C[C@]3(CCCN3C(=O)Cc3ccc(NC(=O)COc4ccc(Cl)cc4Cl)cc3)C(=O)N12	316	343	362	356	378	409	376	325	362
CCOc1cc2ncc(C#N)c(Nc3ccc(F)c(Cl)c3)c2cc1NC(=O)/C=C/CN(C)C	312	338	320	323	385	353	321	300	312
CCC[S+](=O)([O-])Nc1ccc(F)c(C(=O)c2c[nH]c3ncc(Cl)cc23)c1F	439	450	431	403	437	440	409	419	425
COc1cc([C@@H](CC(=O)O)c2ccc(C)c(CN3C[C@@H](C)Oc4ccccc4[S+]3(=O)[O-])c2)cc2nnn(C)c12	407	446	452	403	418	431	452	350	367
COc1cc([C@@H]2c3cc4c(cc3[C@H](O)[C@H]3COC(=O)[C@@H]23)OCO4)cc(OC)c1OC	271	279	291	304	280	292	266	280	249
O=C(Nc1nnc(-c2ccco2)o1)c1cc(-c2ccccc2)nc2ccccc12	379	448	451	393	455	451	442	348	443
Cc1cn([C@H]2C=C[C@@H](CO)O2)c(=O)[nH]c1=O	468	475	474	474	435	453	465	450	469
CCOC(=O)N1c2ccc(C(F)(F)F)cc2[C@@H](N(Cc2cc(C(F)(F)F)cc(C(F)(F)F)c2)C(=O)OC)C[C@H]1CC	449	466	471	434	460	470	462	460	468
CN1CCN(c2c(F)cc3c(=O)c(C(=O)O)cn(CCF)c3c2F)CC1	459	457	445	466	447	461	439	458	466
O=C([O-])C[C@H](O)C[C@H](O)/C=C/c1c(C2CC2)nc2ccccc2c1-c1ccc(F)cc1	407	375	390	443	450	440	395	418	413
Cc1nc2cc(C(=O)N3CCC4(CC3)CC(=O)c3c(cnn3C(C)C)C4)ccc2[nH]1	457	469	458	465	471	455	–	–	–
Cc1nn(C)c(COc2ccc(N3CCN([S+](=O)([O-])N(C)C)CC3)cc2)c1-c1cccc2c(CCCOc3cccc4ccccc34)c(C(=O)O)n(CCN3CCOCC3)c12	392	463	456	–	–	–	465	377	458
C/C(=N\NC(=S)N1CCC1)c1ccccn1	127	120	122	122	140	121	–	–	–
O=C(Nc1c[nH]nc1-c1nc2cc(CN3CCOCC3)ccc2[nH]1)NC1CC1	270	282	304	–	–	–	219	202	199
CN(C)c1ccc2nc3ccc(N(C)C)cc3[s+]c2c1	387	386	395	401	374	376	–	–	–
COc1ccc(C(CN(C)C)C2(O)CCCCC2)cc1 (configuration not stated)	459	405	461	–	–	–	476	475	424
